Laboratory results as given in patent publication US12329747B2, “Use of lipophilic beta-lactam antibiotics and carboxylate esters for the treatment of bacterial infections within citrus and other plant species” (priority 2019, dated 2025).
Structures can show the parent of a compound that is named as a salt.

Columns and labels:
HLB = details: cited from earlier work; for effect on HLB infected trees: spraying or common treatment, background statement
citrus leaves = details: external application, background statement; cited from earlier work
[1] = system: Murcott mandarin clippings; assay: Foliar application to citrus clippings, negative ESI mass spectrum of reservoir water after 24 hours; details: 25 μmoles in 1:1 neem oil, 24 hour incubation; for penicillin G/V or metabolite peaks detected in reservoir water: negative ESI mass spectrum
[2] = system: fire blight (Erwinia amylovera); details: background statement; cited from earlier work
Candidatus Liberibacter = details: background statement, cited from earlier work; for effectiveness against the pathogenic bacteria: grafting method

| Compound | hydrolysis of the ester into the active antibiotic by citrus tissue [1] | penetration of waxy cuticle layer and epidermis to access the phloem [1] | penicillin G/V or metabolite peaks detected in reservoir water [1] | also measured |
| --- | --- | --- | --- | --- |
| [Cu] [Copper] |  |  |  | effect on HLB infected trees (HLB): not been found to be effective |
| CC[C@H]1CCC[C@H](O[C@H]2CC[C@H](N(C)C)[C@@H](C)O2)[C@@H](C)C(=O)C2=C[C@@H]3[C@@H](C=C[C@@H]4C[C@@H](O[C@@H]5O[C@@H](C)[C@H](OC)[C@@H](OC)[C@H]5OC)C[C@@H]34)[C@@H]2CC(=O)O1 [Spinosyn A] |  |  |  | penetration of citrus leaves or stems (citrus leaves): known to readily penetrate citrus leaves |
| COC(=O)[C@@H]1N2C(=O)[C@@H](NC(=O)Cc3ccccc3)[C@H]2SC1(C)C [product compound 1, Methyl(2S,5R,6R)-3,3-dimethyl-7-oxo-6-(2-phenylacetamido)-4-thia-1-azabicyclo[3.2.0]heptane-2-carboxylate] | not being successfully metabolized to the active antibiotic | affectively penetrate through the waxy cuticle layer and through the epidermis to access the phloem |  |  |
| COC(=O)[C@@H]1N2C(=O)[C@@H](NC(=O)COc3ccccc3)[C@H]2SC1(C)C [product compound 2, Methyl(2S,5R,6R)-3,3-dimethyl-7-oxo-6-(2-phenoxyacetamido)-4-thia-1-azabicyclo[3.2.0]heptane-2-carboxylate] | not being successfully metabolized to the active antibiotic | affectively penetrate through the waxy cuticle layer and through the epidermis to access the phloem |  |  |
| CC1(C)S[C@@H]2[C@H](NC(=O)Cc3ccccc3)C(=O)N2[C@H]1C(=O)OCc1ccccc1 [product compound 3, Benzyl(2S,5R,6R)-3,3-dimethyl-7-oxo-6-(2-phenylacetamido)-4-thia-1-azabicyclo[3.2.0]heptane-2-carboxylate] |  | substantially reduce permeability | no recognizable metabolite peaks were detected |  |
| CC1(C)S[C@@H]2[C@H](NC(=O)COc3ccccc3)C(=O)N2[C@H]1C(=O)OCc1ccccc1 [product compound 4, Benzyl(2S,5R,6R)-3,3-dimethyl-7-oxo-6-(2-phenoxyacetamido)-4-thia-1-azabicyclo[3.2.0]heptane-2-carboxylate] |  | substantially reduce permeability | no recognizable metabolite peaks were detected |  |
| CCCCCCCCCC(=O)OCOC(=O)[C@@H]1N2C(=O)[C@@H](NC(=O)Cc3ccccc3)[C@H]2SC1(C)C [product compound 5, (Decanoyloxy)methyl (2S,5R,6R)-3,3-dimethyl-7-oxo-6-(2-phenylacetamido)-4-thia-1-azabicyclo[3.2.0]heptane-2-carboxylate] | hydrolyzed into the active antibiotic | affectively penetrate through the waxy cuticle layer and through the epidermis to access the phloem | base peaks in the mass spectrum corresponded to the active antibiotics |  |
| CCCCCCCCCC(=O)OCOC(=O)[C@@H]1N2C(=O)[C@@H](NC(=O)COc3ccccc3)[C@H]2SC1(C)C [product compound 6, (Decanoyloxy)methyl(2S,5R,6R)-3,3-dimethyl-7-oxo-6-(2-phenoxyacetamido)-4-thia-1-azabicyclo[3.2.0]heptane-2-carboxylate] | hydrolyzed into the active antibiotic | affectively penetrate through the waxy cuticle layer and through the epidermis to access the phloem | base peaks in the mass spectrum corresponded to the active antibiotics |  |
| CC(C)(C)C(=O)OCOC(=O)[C@@H]1N2C(=O)[C@@H](NC(=O)Cc3ccccc3)[C@H]2SC1(C)C [product compound 7, (Pivaloyloxy)methyl (2S,5R,6R)-3,3-dimethyl-7-oxo-6-(2-phenylacetamido)-4-thia-1-azabicyclo[3.2.0]heptane-2-carboxylate] | hydrolyzed into the active antibiotic | affectively penetrate through the waxy cuticle layer and through the epidermis to access the phloem | base peaks in the mass spectrum corresponded to the active antibiotics |  |
| CC(C)(C)C(=O)OCOC(=O)[C@@H]1N2C(=O)[C@@H](NC(=O)COc3ccccc3)[C@H]2SC1(C)C [product compound 8, (Pivaloyloxy)methyl (2S,5R,6R)-3,3-dimethyl-7-oxo-6-(2-phenoxyacetamido)-4-thia-1-azabicyclo[3.2.0]heptane-2-carboxylate] | hydrolyzed into the active antibiotic | affectively penetrate through the waxy cuticle layer and through the epidermis to access the phloem | base peaks in the mass spectrum corresponded to the active antibiotics |  |
| [H]/N=C(/N)N[C@H]1[C@H](O)[C@@H](O)[C@H](O[C@@H]2O[C@@H](C)[C@](O)(C=O)[C@H]2O[C@@H]2O[C@@H](CO)[C@H](O)[C@@H](O)[C@@H]2NC)[C@@H](N/C(N)=N\[H])[C@@H]1O [streptomycin sulfate] |  |  |  | bactericidal or bacteriostatic action [2]: bactericidal; effect on HLB infected trees (HLB): only marginally improved the health of trees |
| benzylpenicillin (penicillin G) |  |  |  | penetration of citrus leaves or stems (citrus leaves): do not easily penetrate the waxy cuticle covering; phytotoxicity (Candidatus Liberibacter): very little phytotoxicity; effectiveness against the pathogenic bacteria (Candidatus Liberibacter): extremely effective; effect on tree health (HLB; direct injected into infected citrus trees, alone or in combinations with other antibiotics): marked improvement |
| phenoxymethylpenicillin (penicillin V) |  |  |  | penetration of citrus leaves or stems (citrus leaves): do not easily penetrate the waxy cuticle covering; phytotoxicity (Candidatus Liberibacter): very little phytotoxicity; effectiveness against the pathogenic bacteria (Candidatus Liberibacter): extremely effective |
